Measured values from PMC12155470, “Novel Tetraene Macrodiolides Are Effective Inducers of Mitochondrial Apoptosis in Jurkat Cells” (International Journal of Molecular Sciences, 2025).

Tests used:
HL60 = assay: In vitro cytotoxic activity, 7-AAD flow cytometry, HL60; assay type: cell-based; conditions: Homo sapiens, HL-60, 24 h incubation, mean ± SD, triplicate
Description: (§1) The investigation focused on the assessment of the synthesized compounds’ toxicities, utilizing a panel of six diverse cell lines. The selection of cells was based on the specific features of their metabolism, namely, Jurkat, K562, U937, and HL60 cells are suspension cultures of oncohematologic origin, and HEK293 is a conditionally normal line transformed by adenovirus and often used as control cells along with fibroblasts. The normal fibroblast line (Wi-38) utilized in the experiment was diploid and was obtained from the lung tissue of an aborted fetus. The total cytotoxic activity of 16 compounds was studied using flow cytometry.
(§2) Human cancer cell lines, including Jurkat, K562, U937, HL60, and fibroblasts (Wi-38), were obtained from the European Authentic Cell Culture Collection and further cultured according to established standard protocols using sterile methods. The cells were cultivated in RPMI 1640 (for Jurkat and K562) and DMEM (for Wi-38 and HEK293) media (Gibco, Billings, MT, USA), with the addition of […] glutamine, 10% FBS (Sigma, Kanagawa, Japan), and 100 U/mL penicillin–streptomycin (Sigma). All cell types were cultivated in a humidified atmosphere containing 5% CO₂ at a temperature of 37 °C. Subculturing was performed at two- to three-day intervals. The cells were subsequently seeded into 24-well plates at a density of 5 × 10^4 cells per well and incubated overnight. Subsequent subculturing was then performed at two-day intervals, with a seeding density of 1 × 10^5 cells per 24-well plate, using RPMI medium with 10% FBS [49].
(§3) The dissolution of the compounds tested was initially performed in dimethyl sulfoxide (DMSO) with an initial solution of 100 mM in 10% DMSO. Subsequently, the solution was diluted in a complete culture medium, namely, Dulbecco’s medium, modified Eagle’s medium (DMEM), or Roswell Park Memorial Institute medium (RPMI). Substances were added at concentrations of 10, 1, 100, 10, 1, and 0.1 μM on the day after seeding and incubated for 24 h. Following this, the cells were washed with a phosphate-buffered saline (PBS) solution and stained with 7AAD dye, as per the manufacturer’s protocol for flow cytometry. The CC50 value, which characterizes the parameters of toxicity (i.e., the concentration of the compound required for 50% inhibition of cell viability in vitro), was calculated. logC versus % inhibition was plotted, and statistical data processing was performed using Excel and GraphPad Prism v.8.0.2 (San Diego, CA, USA, 2019). The data obtained from three independent experiments were expressed as the mean of three measurements for each concentration, with the standard deviation indicated as well. These values were then relative to the control values (0.1% DMSO), which were taken as 100%.
(§4) 7-AAD (7-aminoactinomycin D) dye (eBioscience™, San Diego, CA, USA) was used to assess cell viability. Following incubation with the test compounds, the cells were harvested, washed with a phosphate–salt buffer (PBS), and subjected to centrifugation at 400× g for five minutes. The cell sediment was resuspended in 200 μL of staining buffer for flow cytometry (PBS without calcium and magnesium, 2.5% FBS) and stained with a 1 mM 7-AAD dye solution for 15 min in the dark at room temperature. Subsequently, all samples, including experimental and control groups, were analyzed using a BD FACSAria™ III Cell Sorter flow cytometer (Milpitas, CA, USA).

Jurkat cells [1] = assay: Mitodamage assay (MitoSense Red, Annexin V-CF488A, 7-AAD); assay type: cell-based, Human; conditions: compound at CC50 concentration, four hours
Protocol: To this end, MitoSense Red, a fluorescent dye that accumulates predominantly in mitochondria and responds to changes in membrane potential, was utilized. […] Two dyes commonly employed for detecting apoptosis in cells are annexin V and 7AAD. […] Therefore, the dissipation of mitochondrial membrane potential and the associated apoptosis process in Jurkat tumor cells were analyzed in response to exposure to synthesized macrodiolides. MitoSense Red, Annexin V-CF488A, and 7-AAD were used as dyes for this analysis (see Figure 3). A flow cytometry kit (FlowCellect™ MitoDamage Kit from Millipore, Hayward, CA USA) was utilized, as it facilitates a multiparametric evaluation of three markers of cell health. These markers include changes in mitochondrial potential (early apoptosis and cell stress), phosphatidylserine expression on the cell surface (late apoptosis), and membrane permeability (cell death). The method of the simultaneous detection of mitochondrial damage was performed according to the well-known technique.  Figure 3 Detection changes in mitochondrial membrane potential (ΔΨ) and coupled early and late apoptosis in Jurkat cells treated with compounds 9d, 8d, 7d, and 6d. Staurosporine and carbonyl cyanide-m-chlorophenylhydrazone were utilized as control compounds. The addition of all the tested compounds was executed at the CC50 concentration (refer to the provided table for the cytotoxicities of the synthesized compounds). The staining of cells was conducted using MitoSense Red, Annexin V-CF488A, and 7-AAD. The incubation period lasted for a duration of four hours. The presence of three *** (p < 0.001) and two asterisks ** (p < 0.005) indicates the significance of the observed differences between the values obtained in the control sample and the samples treated with the synthesized substances (comparison was performed by one-way ANOVA). All experiments were performed in triplicate.

[2] = In vitro cytotoxic activity, 7-AAD flow cytometry, Hek293; assay type: cell-based; conditions: human, HEK293 cells, conditionally normal line, 24 h incubation, mean ± SD
Description: as §1, §2, §3, §4

[3] = In vitro cytotoxic activity, 7-AAD flow cytometry, normal fibroblasts; assay type: cell-based; conditions: human, Wi-38 normal lung fibroblasts, normal fibroblasts Wi-38, 24 h incubation, mean ± SD, read-out: Fibrobl. (CC50)
Description: as §1, §2, §3, §4

K562 = assay: In vitro cytotoxic activity, 7-AAD flow cytometry, K562; assay type: cell-based, Human; conditions: 24 h incubation, mean ± SD, triplicate
Description: as §1, §2, §3, §4

Jurkat cells [4] = assay: Cytochrome C assay (flow cytometry); assay type: cell-based, Human; conditions: compound at CC50 concentration, 6 h (Figure 4; method says four hours)
Description: The quantification of cytochrome c release from the mitochondria in apoptotic cells was used to detect the mitochondrial pathway of apoptosis in the cells by flow cytometry. This study employed a direct labeling method that utilized an anti-cytochrome cFITC antibody, an anti-IgG1-FITC isotype control, and optimized fixation, permeabilization, and blocking buffers to detect cytochrome c by flow cytometry (Luminex®, Austin, TX, USA). […] The Jurkat cells were exposed to test substances at concentrations corresponding to their 24-h CC50 in these cells for a period of four hours. Thereafter, analysis by flow cytometry (NovoCyte Flow Cytometry™ Agilent, San Diego, CA, USA) was conducted. The acquired data were processed using NovoExpress® software (version 1.6.2) (ACEA (Agilent, Santa Clara, CA, USA)).
Figure 4 Detection of cytochrome c in Jurkat cells stained with a FlowCellect Cytochrome c Kit. The control compound, carbonyl cyanide m-chlorophenylhydrazone (CCCP), was administered at a concentration equal to its CC50 value. Compound 9d was added to the sample cells at a CC50 concentration (see the table of cell viability). The cells were incubated for 6 h. We compared the numerical values to determine the reliability of the differences observed between the control sample and the samples treated with the synthesized substances. […]

Jurkat = assay: In vitro cytotoxic activity, 7-AAD flow cytometry, Jurkat; assay type: cell-based, Human; conditions: 24 h incubation, mean ± SD, triplicate
Description: as §1, §2, §3, §4

U937 = assay: In vitro cytotoxic activity, 7-AAD flow cytometry, U937; assay type: cell-based, Human; conditions: Homo sapiens, U-937, 24 h, 24 h incubation, mean ± SD, triplicate
Description: as §1, §2, §3, §4

O=C1CCCCC/C=C\CC/C=C\CCCCCC(=O)OCCCCCC/C=C\CC/C=C\CCCCCCO1 [Compound 9d]
CC50 (HL60): 13.5 ± 1.21 nM
percentage of cells in apoptosis (Jurkat cells [1]; Jurkat, Annexin V-CF488A/7-AAD): 50.34%
Jurkat cells with reduced mitochondrial membrane potential (Δψ dissipation) (Jurkat cells [1]; MitoSense Red): 77.42%
CC50 at 24 h [2]: 42.6 ± 4.31 nM
CC50 at 24 h [3]: 64.3 ± 5.81 nM
CC50 (K562): 11 ± 1.25 nM
CC50 (K562; Homo sapiens, K562, 24 h): 12.1 nM
cells releasing cytochrome c into the cytoplasm (Cytochrome loss %) (Jurkat cells [4]): 68.22%
CC50 (Jurkat): 12.1 ± 1.77 nM
CC50 (Jurkat; Homo sapiens, Jurkat, 24 h): 11 nM
CC50 (U937): 12.2 ± 1.41 nM
